Experimental data reported in US6399542B1, “Alkoxyimino-substituted bicyclic compounds compositions containing the same and method of making such compounds” (Agro-Kanesho Co., Ltd., priority 1997, dated 2002).
Read-outs that look alike come from different tables or passages of the source.

Assays:
Puccinia recondite = test: Penetration and translocation in wheat leaves (covered leaf tip, brown rust); format: in vivo
Erysiphe graminis = test: Effects on Barley powdery mildew (preventive spray test); format: in vivo; conditions: lesions counted seven days after inoculation
Puccinia recondita = test: Effect on Wheat brown rust (preventive spray test); format: in vivo; conditions: 7 days after inoculation
[1] = system: Psecidoperonospora cubensis; test: Effect on Cucumber downy mildew (preventive spray test); format: in vivo; conditions: 7 days after inoculation
Pyricularia oryzae = format: in vivo; conditions: Rice blast, 7 days after inoculation
Rhizoctonia solani = test: Effect on Rice sheath blight (preventive spray test); conditions: 10 days after inoculation
Phytophthora infestans = format: in vivo; conditions: Tomato late blight, 5 days after inoculation
Chochliobolus miyabeanus = test: Effect on Rice brown spot (preventive spray test); format: in vivo; conditions: 7 days after inoculation
Botrytis cinerea = test: Effect on Cucumber gray mold (cotyledon paper disc test); format: in vivo; conditions: 3 days after inoculation
[2] = conc. of active ingredient 100 ppm
[3] = conc. of active ingredient 20 ppm
[4] = conc. of active ingredient 4 ppm
[5] = conc. of active ingredient 200 ppm

SMILES | Preventive rate (%) (Erysiphe graminis; [3]) | Preventive rate (%) (Erysiphe graminis; [2]) | Preventive rate (%) (Puccinia recondita; [4]) | Preventive rate (%) (Puccinia recondita; [3]) | Preventive rate (%) (Puccinia recondita; [2]) | Preventive rate (%) [1, 4] | Preventive rate (%) [1, 3] | Preventive rate (%) [1, 2] | Preventive rate (%) (Pyricularia oryzae; [3]) | Preventive rate (%) (Pyricularia oryzae; [2]) | Preventive rate (%) (Rhizoctonia solani; [3]) | Preventive rate (%) (Rhizoctonia solani; [2]) | Preventive rate (%) (Erysiphe graminis; [4]) | Preventive rate (%) (Phytophthora infestans; [3]) | Preventive rate (%) (Phytophthora infestans; [2]) | Preventive rate (%) (Chochliobolus miyabeanus; [3]) | Preventive rate (%) (Chochliobolus miyabeanus; [2]) | Preventive rate (%) (Botrytis cinerea; [3]) | Preventive rate (%) (Botrytis cinerea; [2]) | other results
CON=C(C(=O)OC)c1ccccc1COc1ccc2c(c1C)OC(C)CC2=NOC (racemic) [d-10] |  |  |  |  |  |  |  |  |  |  |  |  |  |  |  |  |  |  |  | Number of lesions formed within the mark to the tip (Puccinia recondite; [2]): 0; Preventive rate (%) (Puccinia recondite; [2]): 100%; Rate of the translocation perfect preventive conc. (%) (Puccinia recondite; [2]): 100%
CNC(=O)C(=NOC)c1ccccc1COc1ccc2c(c1C)OC(C)CC2=NOC (racemic) [d-11] | 99% | 99% | 100% | 100% | 100% | 93% | 96% | 100% | 78% | 95% | 75% | 96% |  |  |  |  |  |  |  | Preventive rate (%) (Pyricularia oryzae; [4]): 68%
COC=C(C(=O)OC)c1ccccc1COc1ccc2c(c1C)OCC2=NOC [a-13] | 100% | 100% |  |  |  |  | 96% | 100% |  |  | 97% | 97% | 100% | 100% | 100% | 88% | 96% | 96% | 100% | 
CNC(=O)/C(=N/OC)c1ccccc1COc1cc2c(cc1C)C(=NOC)CO2 [a-27] | 100% | 100% | 98% | 100% | 100% |  |  |  | 77% | 82% |  |  | 100% | 95% | 95% | 77% | 83% |  |  | Preventive rate (%) (Phytophthora infestans; [4]): 95%; Number of lesions formed within the mark to the tip (Puccinia recondite; [5]): 0; Preventive rate (%) (Puccinia recondite; [5]): 100%; Rate of the translocation perfect preventive conc. (%) (Puccinia recondite; [5]): 100%
C=CCON=C1COc2c1ccc(OCc1ccccc1/C(=N\OC)C(=O)OC)c2C [a-59] | 92% | 100% | 90% | 98% | 100% |  |  |  |  |  | 60% | 72% |  |  |  |  |  | 73% | 76% | 
CO/N=C(/C(=O)OC)c1ccccc1COc1ccc2c(c1C)OCC2=NOC/C=C/Cl [a-61] | 100% | 100% | 91% | 100% | 100% |  |  |  |  |  | 60% | 96% | 99% | 89% | 91% | 72% | 91% | 91% | 85% | Preventive rate (%) (Chochliobolus miyabeanus; [4]): 49%
CNC(=O)/C(=N/OC)c1ccccc1COc1ccc2c(c1C)OCC2=NOC/C=C/Cl [a-62] | 100% | 100% | 100% | 100% | 100% | 94% | 100% | 100% |  |  | 91% | 98% | 98% | 97% | 98% | 83% | 88% | 96% | 100% | 
C#CCON=C1COc2c1ccc(OCc1ccccc1/C(=N\OC)C(=O)OC)c2C [a-70] | 100% | 100% | 99% | 100% | 100% |  | 88% | 91% |  |  | 80% | 90% |  | 95% | 95% |  |  | 53% | 85% | 
CNC(=O)/C(=N/OC)c1ccccc1COc1ccc2c(c1C)OC(C)C2=NOC (stereo not shown) [b-7] | 100% | 100% | 99% | 100% | 100% | 89% | 93% | 96% | 89% | 100% | 86% | 98% | 99% | 95% | 100% | 95% | 96% |  |  | Preventive rate (%) (Chochliobolus miyabeanus; [4]): 56%
CON=C(C(=O)OC)c1ccccc1COc1ccc2c(c1)OCCC2=NOC [c-4] |  |  |  |  | 100% |  | 94% | 100% | 86% | 90% | 53% | 98% |  | 97% | 97% | 80% | 80% |  |  | 
COC=C(C(=O)OC)c1ccccc1COc1ccc2c(c1C)OCCC2=NOC [c-13] | 100% | 100% | 100% | 100% | 100% | 100% | 100% | 100% | 94% | 100% |  |  | 100% | 100% | 100% | 93% | 100% | 49% | 58% | Preventive rate (%) (Phytophthora infestans; [4]): 95%; Preventive rate (%) (Chochliobolus miyabeanus; [4]): 82%; Number of lesions formed within the mark to the tip (Puccinia recondite; [2]): 0; Preventive rate (%) (Puccinia recondite; [2]): 100%; Rate of the translocation perfect preventive conc. (%) (Puccinia recondite; [2]): 100%
CNC(=O)C(=NOC)c1ccccc1COc1cc2c(cc1C)C(=NOC)CCO2 [c-27] | 100% | 100% | 96% | 100% | 100% | 86% | 93% | 96% | 95% | 100% | 93% | 94% | 100% | 98% | 100% |  |  |  |  | 
CCc1c(OCc2ccccc2C(=NOC)C(=O)NC)ccc2c1OCCC2=NOC [c-30] | 100% | 100% | 100% | 100% | 100% |  |  |  | 100% | 100% | 56% | 98% | 95% |  |  |  |  |  |  | 
CNC(=O)C(=NOC)c1ccccc1COc1ccc2c(c1C)CCC2=NOC [e-16] | 100% | 100% |  | 100% | 100% |  | 100% | 100% |  |  |  |  | 100% | 100% | 100% |  |  |  |  | Number of lesions formed within the mark to the tip (Puccinia recondite; [2]): 0; Preventive rate (%) (Puccinia recondite; [2]): 100%; Rate of the translocation perfect preventive conc. (%) (Puccinia recondite; [2]): 100%
CNC(=O)C(=NOC)c1ccccc1COc1cc(C)c2c(c1C)CCC2=NOC [e-23] | 100% | 100% |  | 100% | 100% |  | 96% | 100% |  |  | 64% | 69% | 100% | 100% | 100% | 98% | 98% | 86% | 96% | 
CNC(=O)C(=NOC)c1ccccc1COc1cc2c(cc1C)C(=NOC)CC2 [e-27] | 99% | 100% | 100% | 100% | 100% | 100% | 100% | 100% |  |  |  |  | 99% | 100% | 100% | 99% | 99% |  |  | Preventive rate (%) (Phytophthora infestans; [4]): 100%; Preventive rate (%) (Chochliobolus miyabeanus; [4]): 96%; Number of lesions formed within the mark to the tip (Puccinia recondite; [2]): 0; Preventive rate (%) (Puccinia recondite; [2]): 100%; Rate of the translocation perfect preventive conc. (%) (Puccinia recondite; [2]): 100%
